Data as given in patent EP4599821A1, “CANNABIDIOL-COMPRISING LIPOSOMES” (Novozymatic BV, priority 2024, dated 2025).

Assays:
[1] = Visual appearance of diluted reference and intravenous CBD formulations; assay type: physicochemical
From the text: As a control for the CBD granules, a commercial product was used, namely Epidyolex.
When comparing the two solutions, the second approach qualified as a suitable injectable formulation for the rat study.

[2] = cited from earlier work

Compound: C=C(C)[C@@H]1CCC(C)=C[C@H]1c1c(O)cc(CCCCC)cc1O [CBD, cannabidiol]
- visual appearance of intravenous formulation ([1]; first approach: 50 mg/ml in 95% ethanol, diluted to 1 mg/ml in 96% saline and 2% polysorbate 80): formation of fat drops
- visual appearance of intravenous formulation ([1]; second approach: 50 mg/ml in 1:1 ethanol: polysorbate 80, diluted to 1 mg/ml in 98% saline, 10 or 20 min rest): no fat drops and no sediment were observed
- Cmax (maximum concentration) ([2]; 20 mg of orally delivered CBD/THC sprayed onto a gelatin capsule): 2.4 ng/mL
- Time to peak plasma concentration ([2]; oral delivery): 1 to 4 h
